In US8906879B2, “Combination for the treatment of cancer” (GlaxoSmithKline Intellectual Property (No. 2) Limited, priority 2010, dated 2014):

Tests used:
Capan-1 = test: Cell growth inhibition assay (Cell Titer Glo), Capan-1; format: cell-based; settings: Homo sapiens, 72 h; single agent; Capan-1, KRAS G12V; 3 days
Experimental: (§1) BxPC-3, HuP-T4, PL45, Panc-02-03, Mia-PaCa, HPAF-II, SW1990, Panc-08-13, Capan-1, AsPC-1, Capan-2, HPAC, YAPC and Panc-1 lines were used in the study. BxPC-3, Mia-PaCa, HPAF-11, SW1990, AsPC-1, Capan-2 and YAPC were cultured in RPMI 1640 medium (cat#72400 047, Invitrogen) containing 10% fetal bovine serum (FBS) (cat#SH30071.03, Hyclone). Capan-1 and HuP-T4 were cultured in RPMI 1640 medium containing 20% FBS. PL45 and PANC-1 lines were cultured in DMEM (ATCC 30-2002) containing 10% FBS. Panc-02-03 and Panc-08-13 were cultured in RPMI 1640 medium containing 15% fetal bovine serum and ITSX (51500-056, Gibco). HPAC was cultured in RPMI 1640 medium containing 5% FBS, ITSX, 40 ng/ml Hydrocortism, and 10 ng/ml EGF (85570C-1MG, SAFC Biosciences).
(§2) All cells were cultured for a minimum of 72 hours prior to cell plating. […] ATP levels were determined by adding Cell Titer Glo® (Promega) according to the manufacturer's protocol. Briefly, Cell Titer Glo® was added to each plate, incubated for 30 minutes and then the luminescent signal was read on the SpectraMax L plate reader with a 0.5 sec integration time.
(§3) Inhibition of cell growth was estimated after treatment with compound or combination of compounds for three days and the signal was compared to cells treated with vehicle (DMSO). Cell growth was calculated relative to vehicle (DMSO) treated control wells. […]

Panc-08-13 = test: Cell growth inhibition assay (Cell Titer Glo), Panc-08-13; format: cell-based; settings: Homo sapiens, 72 h; single agent; Panc-08-13, KRAS G12D; 3 days
Experimental: as §1, §2, §3

SW1990 = test: Cell growth inhibition assay (Cell Titer Glo), SW1990; format: cell-based; settings: Homo sapiens, 72 h; single agent; SW1990, KRAS G12D; 3 days
Experimental: as §1, §2, §3

Capan-2 = test: Cell growth inhibition assay (Cell Titer Glo), Capan-2; format: cell-based; settings: Homo sapiens, 72 h; single agent; Capan-2, KRAS G12V; 3 days
Experimental: as §1, §2, §3

BxPC-3 = test: Cell growth inhibition assay (Cell Titer Glo), BxPC-3; format: cell-based; settings: Homo sapiens, 72 h; single agent; BxPC-3, KRAS WT; 3 days
Experimental: as §1, §2, §3

Panc-02-03 = test: Cell growth inhibition assay (Cell Titer Glo), Panc-02-03; format: cell-based; settings: Homo sapiens, Panc 02.03, 72 h; single agent; Panc-02-03, KRAS G12D; 3 days
Experimental: as §1, §2, §3

PL45 = test: Cell growth inhibition assay (Cell Titer Glo), PL45; format: cell-based; settings: Homo sapiens, 72 h; single agent; PL45, KRAS G12D; 3 days
Experimental: as §1, §2, §3

HPAF-II = test: Cell growth inhibition assay (Cell Titer Glo), HPAF-II; format: cell-based; settings: Homo sapiens, 72 h, single agent, KRAS G12D, 3 days
Experimental: as §1, §2, §3

HuP-T4 = test: Cell growth inhibition assay (Cell Titer Glo), HuP-T4; format: cell-based; settings: Homo sapiens, 72 h; single agent; HuP-T4, KRAS G12V; 3 days
Experimental: as §1, §2, §3

HPAC = test: Cell growth inhibition assay (Cell Titer Glo), HPAC; format: cell-based; settings: Homo sapiens, 72 h, single agent, KRAS G12D, 3 days
Experimental: as §1, §2, §3

AsPC-1 = test: Cell growth inhibition assay (Cell Titer Glo), AsPC-1; format: cell-based; settings: Homo sapiens, ASPC1, 72 h; single agent; AsPC-1, KRAS G12D; 3 days
Experimental: as §1, §2, §3

YAPC = test: Cell growth inhibition assay (Cell Titer Glo), YAPC; format: cell-based; settings: Homo sapiens, 72 h, single agent, KRAS G12V, 3 days
Experimental: as §1, §2, §3

[1] = tested on: KRAS mutant lines HPAF-11, SW1990, Panc-08-13 and Capan-1; test: Cell growth inhibition assay, four KRAS mutant lines; format: cell-based; settings: Homo sapiens; single agent; over HPAF-11, SW1990, Panc-08-13 and Capan-1
Experimental: as §1
(§4) All cells were cultured for a minimum of 72 hours prior to cell plating. Cells were assayed in a 96-well tissue culture plate (NUNC 136102) of RPMI medium containing 10% FBS for all cells at 1,000 cells per well. Approximately 24 hours after plating, cells were exposed to ten, three-fold serial dilutions of compound or the combination of the two agents at a constant molar to molar ratio of 1:1 Compound A to Compound B in RPMI media containing 10% FBS. Cells were incubated in the presence of compounds for 3 days. ATP levels were determined by adding Cell Titer Glo® (Promega) according to the manufacturer's protocol. Briefly, Cell Titer Glo® was added to each plate, incubated for 30 minutes and then the luminescent signal was read on the SpectraMax L plate reader with a 0.5 sec integration time.
as §3
(§5) Combination effects on potency were evaluated using Combination Index (CI) which was calculated with the back-interpolated IC50 values and the mutually non-exclusive equation derived by Chou and Talalay: CI=Da/IC50(a)+Db/IC50(b)+(Da×Db)/(IC50(a)×IC50(b)) […]
(§6) The combination effects on the response scale were quantified by Excess Over Highest Single Agent (EOHSA) based on the concept of nonlinear blending as described in detail by Liu et al, 2011. […] For single agent and combination treatments, cells were exposed to compounds at a fixed-dose-ratio, and dose response curves were fit to the experimental data and analyzed using regression models. At specified total dose levels of IC50 along the dose response curve, the dose combination (corresponding to IC50) was determined for making EOHSA statistical inferences. […]

[2] = tested on: KRAS mutant tumor lines, HuP-T4, PL45, Panc-02-03 and Mia-PaCa; test: as above; format: cell-based; settings: Homo sapiens; single agent; range over HuP-T4, PL45, Panc-02-03 and Mia-PaCa
Experimental: as §1, §4, §3, §5, §6

Panc-1 = test: Cell growth inhibition assay (Cell Titer Glo), Panc-1; format: cell-based, human; settings: for IC50: Homo sapiens, 72 h, single agent, Panc-1, KRAS G12D, 3 days; for sensitivity of cell growth (in words): KRAS mutant Panc-1 cells
Experimental: as §1, §4, §3, §5, §6

Mia-PaCa = test: Cell growth inhibition assay (Cell Titer Glo), Mia-PaCa; format: cell-based; settings: Homo sapiens, MIA PaCa-2, 72 h, single agent, KRAS G12C, 3 days
Experimental: as §1, §2, §3

Row | IC50 (Panc-08-13) | IC50 (SW1990) | IC50 (BxPC-3) | IC50 (Panc-02-03) | IC50 (AsPC-1) | IC50 [1] | IC50 [2] | IC50 (Panc-1) | IC50 (Mia-PaCa) | SMILES | IC50 (Capan-1) | IC50 (Capan-2) | IC50 (PL45) | IC50 (HPAF-II) | IC50 (HuP-T4) | IC50 (HPAC) | IC50 (YAPC) | sensitivity of cell growth (in words) (Panc-1)
1 | > 1 µM | ≥ 1 µM | 0.008 µM | 0.088 ± 0.017 µM | > 1 µM | > 1 µM | 0.007 to 0.088 µM | > 1 µM | 0.021 ± 0.001 µM | Nc1ccn([C@@H]2O[C@H](CO)[C@@H](O)C2(F)F)c(=O)n1 [Compound B, 4-amino-1-(2-deoxy-2,2-difluoro-β-D-erythro-pentofuranosyl)pyrimidin-2(1H)-on 2′,2′-difluoro-2′-deoxycytidine] | > 1 µM | > 1 µM | 0.013 ± 0.002 µM | > 1 µM | 0.007 ± 0.005 µM | > 1 µM | 0.012 ± 0.008 µM | resistant
2 | 0.067 ± 0.014 µM | 0.062 ± 0.043 µM | 0.014 µM | 0.032 ± 0.013 µM | 0.005 µM | 0.059 to 0.193 µM | 0.001 to 0.059 µM | > 1 µM | 0.059 ± 0.028 µM | CC(=O)Nc1cccc(-n2c(=O)n(C3CC3)c(=O)c3c(Nc4ccc(I)cc4F)n(C)c(=O)c(C)c32)c1 [Compound A, N-{3-[3-cyclopropyl-5-(2-fluoro-4-iodo-phenylamino)-6,8-dimethyl-2,4,7-trioxo-3,4,6,7-tetrahydro-2H-pyrido[4,3-d]pyrimidin-1-yl]phenyl}acetamide] | 0.193 ± 0.078 µM | 0.01 ± 0.001 µM | 0.015 ± 0.004 µM | 0.059 ± 0.053 µM | 0.001 ± 0.001 µM | 0.021 ± 0.006 µM | > 1 µM | resistant
